Assay results as given in patent US20250195553A1, “Use of Genipin-1-B-D-Gentiobioside in Preparation of Drug” (Guizhou Bailing Group Pharmaceutical Co., Ltd., priority 2023, published 2025).
Where two headings read alike, the source gives them in different places.

How the values were obtained:
[1] = system: Human Coronavirus OC43 (HCoV-OC43); assay type: in vivo; details: OC43
[2] = system: Human Respiratory Syncytial Virus (RSV); assay: Mouse pneumonia model infected with RSV, nebulization: lung index; assay type: in vivo
Procedure: […] BALB/c mice, weighing 10±1 g, were randomly divided into four groups: a normal control group, a model control group, a high-dose Genipin-1-β-D-gentiobioside group (75 mg/ml), and a low-dose Genipin-1-β-D-gentiobioside group (37.5 mg/ml). Each group consisted of 10 mice, with an equal number of males and females. Except for the normal control group, all mice were lightly anesthetized with isoflurane and infected with respiratory syncytial virus (RSV) via intranasal administration, with each mouse receiving 35 μl of the virus. On the day of infection, the treatment groups began inhalation administration. Each group received nebulization for 25 minutes once daily for four consecutive days. The normal control group and the model control group received nebulized saline under the same conditions. On the fifth day, after weighing, the mice were sacrificed by cervical dislocation, and their lung tissues were dissected, weighed, and used to calculate the lung index and lung index inhibition rate. The lung tissues were also retained for virus load, pathological examination, and inflammatory factor detection. The results were statistically analyzed using the t-test for intergroup comparisons.

[3] = 37.5 mg/ml nebulization 25 min once daily 4 days
[4] = 75 mg/ml nebulization 25 min once daily 4 days

SMILES: COC(=O)C1=CO[C@@H](O[C@@H]2O[C@H](CO[C@@H]3O[C@H](CO)[C@@H](O)[C@H](O)[C@H]3O)[C@@H](O)[C@H](O)[C@H]2O)[C@@H]2C(CO)=CC[C@H]12 [Genipin-1-β-D-gentiobioside]
- Inhibition Rate (lung index) ([1]; 37.5 mg/kg/d i.v. 4 days): 41.59%
- Lung Index ([1]; 37.5 mg/kg/d i.v. 4 days): 0.80 ± 0.08 g lung weight × 100 g/body weight
- Inhibition Rate (lung index) ([1]; 75 mg/kg/d i.v. 4 days): 42.34%
- Lung Index ([1]; 75 mg/kg/d i.v. 4 days): 0.80 ± 0.05 g lung weight × 100 g/body weight
- Inhibition Rate (lung index) ([1]; 150 mg/kg/d i.v. 4 days): 39.93%
- Lung Index ([1]; 150 mg/kg/d i.v. 4 days): 0.80 ± 0.07 g lung weight × 100 g/body weight
- Inhibition Rate (lung index) [2, 3]: 68.79%
- Lung Index [2, 3]: 0.70 ± 0.09 Lung weight/100 g body weight
- Inhibition Rate (lung index) [2, 4]: 88.35%
- Lung Index [2, 4]: 0.67 ± 014 Lung weight/100 g body weight
